Key:
Assay type in all cases: in vivo
[1] = tested on: Echinochloa crus-galli (ECHCG); assay: Post-emergence biological efficacy, glasshouse pot test; conditions: 312 h, Rate 1,000 g/ha, post-emergence spray, evaluated after 13 days (100=total damage to plant; 0=no damage to plant), read-out: Percentage damage caused to weed species, post-emergence, ECHCG
Summary of the method: (§1)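 Scored 13 days after spraying on a 0 (no damage) to 100 (total damage) scale. Treatment was a post-emergence spray at 1000 or 250 g/ha, from acetone/water 50:50 plus 0.5% Tween 20, onto 8-day-old plants in soil pots. Growth at 24/16° C, 14 h photoperiod, 65% humidity, watered twice daily.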

Setaria faberi (SETFA) [2] = assay: as above; conditions: 312 h, Rate 1,000 g/ha, post-emergence spray, evaluated after 13 days (100=total damage to plant; 0=no damage to plant), read-out: Percentage damage caused to weed species, post-emergence, SETFA
Summary of the method: as §1

[3] = tested on: Alopecurus myosuroides (ALOMY); assay: as above; conditions: 312 h, Rate 1,000 g/ha, post-emergence spray, evaluated after 13 days (100=total damage to plant; 0=no damage to plant), read-out: Percentage damage caused to weed species, post-emergence, ALOMY
Summary of the method: as §1

[4] = tested on: Ipomea hederaceae (IPOHE); assay: as above; conditions: Ipomoea hederacea, 312 h; Rate 1,000 g/ha; post-emergence spray; evaluated after 13 days (100=total damage to plant; 0=no damage to plant); read-out: Percentage damage caused to weed species, post-emergence, IPOHE
Summary of the method: as §1

Solanum nigrum (SOLNI) [5] = assay: as above; conditions: 312 h, Rate 1,000 g/ha, post-emergence spray, evaluated after 13 days (100=total damage to plant; 0=no damage to plant), read-out: Percentage damage caused to weed species, post-emergence, SOLNI
Summary of the method: as §1

[6] = tested on: Amaranthus retoflexus (AMARE); assay: as above; conditions: Amaranthus retroflexus, 312 h; Rate 1,000 g/ha; post-emergence spray; evaluated after 13 days (100=total damage to plant; 0=no damage to plant); read-out: Percentage damage caused to weed species, post-emergence, AMARE
Summary of the method: as §1

[7] = tested on: Echinochloa crus-galli (ECHCG); assay: Pre-emergence biological efficacy, glasshouse pot test; conditions: 312 h, pre-emergence, rate 1,000 g/ha, evaluated after 13 days (100=total damage to plant; 0=no damage), read-out: Percentage damage caused to weed species, ECHCG
Summary of the method: (§2)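 Sow seeds in pots of standard soil; after one day in the glasshouse, spray test compound (1000 or 250 g/ha) in aqueous acetone/water with 0.5% Tween 20. Grow 13 days at 24/16 °C day/night, then score damage from 0 to 100.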

Setaria faberi (SETFA) [8] = assay: as above; conditions: 312 h, pre-emergence, rate 1,000 g/ha, evaluated after 13 days (100=total damage to plant; 0=no damage), read-out: Percentage damage caused to weed species, SETFA
Summary of the method: as §2

[9] = tested on: Alopecurus myosuroides (ALOMY); assay: as above; conditions: 312 h, pre-emergence, rate 1,000 g/ha, evaluated after 13 days (100=total damage to plant; 0=no damage), read-out: Percentage damage caused to weed species, ALOMY
Summary of the method: as §2

[10] = tested on: Ipomea hederaceae (IPOHE); assay: as above; conditions: Ipomoea hederacea, 312 h; pre-emergence, rate 1,000 g/ha, evaluated after 13 days (100=total damage to plant; 0=no damage); read-out: Percentage damage caused to weed species, IPOHE
Summary of the method: as §2

Solanum nigrum (SOLNI) [11] = assay: as above; conditions: 312 h, pre-emergence, rate 1,000 g/ha, evaluated after 13 days (100=total damage to plant; 0=no damage), read-out: Percentage damage caused to weed species, SOLNI
Summary of the method: as §2

[12] = tested on: Amaranthus retoflexus (AMARE); assay: as above; conditions: Amaranthus retroflexus, 312 h; pre-emergence, rate 1,000 g/ha, evaluated after 13 days (100=total damage to plant; 0=no damage); read-out: Percentage damage caused to weed species, AMARE
Summary of the method: as §2

| SMILES | pest or weed control at 1000 g/ha [1] [%] | pest or weed control at 1000 g/ha (Setaria faberi (SETFA) [2]) [%] | pest or weed control at 1000 g/ha [3] [%] | pest or weed control at 1000 g/ha [4] [%] | pest or weed control at 1000 g/ha (Solanum nigrum (SOLNI) [5]) [%] | pest or weed control at 1000 g/ha [6] [%] | pest or weed control at 1000 g/ha [7] [%] | pest or weed control at 1000 g/ha (Setaria faberi (SETFA) [8]) [%] | pest or weed control at 1000 g/ha [9] [%] | pest or weed control at 1000 g/ha [10] [%] | pest or weed control at 1000 g/ha (Solanum nigrum (SOLNI) [11]) [%] | pest or weed control at 1000 g/ha [12] [%] |
| --- | --- | --- | --- | --- | --- | --- | --- | --- | --- | --- | --- | --- |
| COC(=O)c1nc(-c2ccc(C(F)(F)F)cc2C(F)(F)F)nc(NCc2ccco2)c1Cl [Compound 234-48, 2-[2,4-Bis(trifluoro-methyl)phenyl]-5-chloro-4-(furan-2-yl-methylamino)-6-methoxycarbonyl-pyrimidine] | 30 | 40 | 10 | 100 | 80 | 100 | 10 | 10 | 20 | 100 | 80 | 90 |
| COC(=O)c1nc(-c2ccc(C(F)(F)F)c(Cl)c2)nc(NCc2ccco2)c1Cl [Compound 235-48, 5-Chloro-2-(3-chloro-4-trifluoromethyl-phenyl)-4-(furan-2-ylmethylamino)-6-methoxycarbonyl-pyrimidine] | 0 | 10 | 10 | 60 | 80 | 80 | 0 | 0 | 0 | 20 | 20 | 10 |
| COC(=O)c1nc(-c2ccc(C)cc2)nc(NCc2ccco2)c1Cl [Compound 237-48, 5-Chloro-4-(furan-2-ylmethylamino)-6-methoxycarbonyl-2-(4-methylphenyl)-pyrimidine] | 0 | 0 | 0 | 70 | 60 | 100 | 20 | 0 | 20 | 30 | 0 | 100 |
| COC(=O)c1nc(-c2ccc(C)cc2Cl)nc(NCc2ccco2)c1Cl [Compound 238-48, 5-Chloro-2-(2-chloro-4-methylphenyl)-4-(furan-2-yl-methyl-amino)-6-methoxy-carbonylpyrimidine] | 0 | 0 | 10 | 60 | 30 | 100 | 0 | 10 | 20 | 0 | 0 | 100 |
| COC(=O)c1nc(-c2ccc(C)c(Cl)c2)nc(NCc2ccco2)c1Cl [Compound 239-48, 5-Chloro-2-(3-chloro-4-methylphenyl)-4-(furan-2-yl-methyl-amino)-6-methoxy-carbonylpyrimidine] | 0 | 0 | 0 | 30 | 30 | 20 | 0 | 0 | 0 | 0 | 0 | 0 |
| COC(=O)c1nc(-c2ccc(C)c(F)c2)nc(NCc2ccco2)c1Cl [Compound 240-48, 5-Chloro-2-(3-fluoro-4-methylphenyl)-4-(furan-2-yl-methyl-amino)-6-methoxy-carbonylpyrimidine] | 20 | 10 | 0 | 70 | 30 | 100 | 0 | 0 | 0 | 0 | 50 | 100 |
| COC(=O)c1nc(-c2cc(F)c(F)cc2F)nc(NCc2ccco2)c1Cl [Compound 241-48, 5-Chloro-4-(furan-2-ylmethylamino)-6-methoxycarbony-2-(2,4,5-trifluoro-phenyl)pyrimidine] | 0 | 10 | 10 | 60 | 50 | 80 | 0 | 0 | 0 | 10 | 0 | 80 |
| COC(=O)c1nc(-c2ccc(F)cc2)nc(NCc2ccco2)c1Cl [Compound 242-48, 5-Chloro-2-(4-fluorophenyl)-4-(furan-2-yl-methyl-amino)-6-methoxy-carbonylpyrimidine] | 20 | 20 | 20 | 60 | 50 | 100 | 0 | 0 | 10 | 20 | 20 | 100 |
| COC(=O)c1nc(-c2ccc(F)c(OC)c2)nc(NCc2ccco2)c1Cl [Compound 243-48, 5-Chloro-2-(4-fluoro-3-methoxyphenyl)-4-(furan-2-yl-methyl-amino)-6-methoxy-carbonylpyrimidine] | 40 | 60 | 10 | 10 | 60 | 100 | 0 | 40 | 10 | 0 | 10 | 60 |
| COC(=O)c1nc(-c2ccc(F)c(C(F)(F)F)c2)nc(NCc2ccco2)c1Cl [Compound 244-48, 5-Chloro-2-(4-fluoro-3-trifluoromethyl-phenyl)-4-(furan-2-ylmethylamino)-6-methoxycarbonyl-pyrimidine] | 60 | 80 | 30 | 30 | 80 | 50 | 20 | 60 | 30 | 0 | 30 | 10 |
